{"source": "patent US20080175902A1", "about": "“Methods for slowing the progression of multiple sclerosis” (University of Plymouth, priority 2006, published 2008)", "key": {"[1]": {"tested_on": "patients with multiple sclerosis", "assay": "Serious adverse events (hospital admissions), 52 week follow up", "assay_type": "in vivo, human", "excerpt": "During this study, all hospital admissions were classed as serious adverse events."}, "[2]": {"tested_on": "patients with multiple sclerosis", "assay": "Category-rating scales of symptoms, 15 week study", "assay_type": "in vivo, human", "details": "category rating vs before study start", "protocol": "Secondary outcomes were also measured in the above-described study. Such secondary outcomes included the Rivermead mobility index (See e.g. Collen, F. M. et al., The Rivermead mobility index: a further development of the Rivermead motor assessment. Int. Disanil. Stud. 1991; 13:50 54) hereby incorporated by reference in its entirety, a timed 10 meter walk, four self completion questionnaires—the United Kingdom neurological disability score (See e.g. Sharrack, B., Hughes R. A., The Guy's neurological disability scale (GNDS): a new disability measure for multiple sclerosis. Mult. Sder. 1999; 5: 223-33), and a series of nine category-rating scales. For the category-rating scale assessment, patients were asked to assess how their symptoms had been over the previous week compared with how they were just before the study started. Categories included irritability, depression, tiredness, muscle stiffness, tremor, pain, sleep, muscle spasms, and amount of energy.\nCategory rating scales were used to assess whether patients felt their symptoms had improved while on treatment relative to before start of treatment. Overall, patients felt that symptoms of pain, sleep quality, spasms, and had improved while on active treatment."}, "patients with MS": {"tested_on": "patients with MS", "details": "4 week period, oral; cited from earlier work"}}, "data": [{"compound": "CCCCCc1cc(O)c2c(c1)OC(C)(C)[C@@H]1CCC(C)=C[C@@H]21", "note": "(relative stereo) [delta-9-THC, Delta-9-Tetrahydrocannabinol]", "values": [{"measurement": "Serious adverse event: Seizure (frequency)", "setting": "[1]; CM", "value": 0}, {"measurement": "Serious adverse event: Urinary tract infection (frequency)", "setting": "[1]; CM", "value": 3}, {"measurement": "Serious adverse events: No. of events", "setting": "[1]; CM", "value": 20}, {"measurement": "Serious adverse events: no. of patients", "setting": "[1]; CM", "value": 18}, {"measurement": "Serious adverse event: Insertion of baclofen pump (frequency)", "setting": "[1]; DM", "value": 0}, {"measurement": "Serious adverse event: Limb fracture (frequency)", "setting": "[1]; DM", "value": 0}, {"measurement": "Serious adverse event: Other (frequency)", "setting": "[1]; DM", "value": 2}, {"measurement": "Serious adverse event: Pneumonia/chest infection (frequency)", "setting": "[1]; DM", "value": 0}, {"measurement": "Serious adverse event: Relapse/possible relapse (frequency)", "setting": "[1]; DM", "value": 2}, {"measurement": "Serious adverse event: Seizure (frequency)", "setting": "[1]; DM", "value": 0}, {"measurement": "Serious adverse event: Urinary tract infection (frequency)", "setting": "[1]; DM", "value": 0}, {"measurement": "Serious adverse events: No. of events", "setting": "[1]; DM", "value": "4 (4)"}, {"measurement": "Serious adverse events: no. of patients", "setting": "[1]; DM", "value": "4 (4)"}, {"measurement": "Depression: Deterioration, % of patients", "setting": "[2]", "value": "(34%)"}, {"measurement": "Depression: Deterioration, number of patients", "setting": "[2]", "value": 42}, {"measurement": "Depression: Improvement, % of patients", "setting": "[2]", "value": "(29%)"}, {"measurement": "Depression: Improvement, number of patients", "setting": "[2]", "value": 36}, {"measurement": "Depression: Same, % of patients", "setting": "[2]", "value": "(38%)"}, {"measurement": "Depression: Same, number of patients", "setting": "[2]", "value": 47}, {"measurement": "Energy: Deterioration, % of patients", "setting": "[2]", "value": "(28%)"}, {"measurement": "Energy: Deterioration, number of patients", "setting": "[2]", "value": 49}, {"measurement": "Energy: Improvement, % of patients", "setting": "[2]", "value": "(35%)"}, {"measurement": "Energy: Improvement, number of patients", "setting": "[2]", "value": 61}, {"measurement": "Energy: Same, % of patients", "setting": "[2]", "value": "(36%)"}, {"measurement": "Energy: Same, number of patients", "setting": "[2]", "value": 63}, {"measurement": "Irritability: Deterioration, % of patients", "setting": "[2]", "value": "(29%)"}, {"measurement": "Irritability: Deterioration, number of patients", "setting": "[2]", "value": 32}, {"measurement": "Irritability: Improvement, % of patients", "setting": "[2]", "value": "(33%)"}, {"measurement": "Irritability: Improvement, number of patients", "setting": "[2]", "value": 37}, {"measurement": "Irritability: Same, % of patients", "setting": "[2]", "value": "(38%)"}, {"measurement": "Irritability: Same, number of patients", "setting": "[2]", "value": 42}, {"measurement": "Pain: Deterioration, % of patients", "setting": "[2]", "value": "(17%)"}, {"measurement": "Pain: Deterioration, number of patients", "setting": "[2]", "value": 22}, {"measurement": "Pain: Improvement, % of patients", "setting": "[2]", "value": "(50%)"}, {"measurement": "Pain: Improvement, number of patients", "setting": "[2]", "value": 64}, {"measurement": "Pain: Same, % of patients", "setting": "[2]", "value": "(33%)"}, {"measurement": "Pain: Same, number of patients", "setting": "[2]", "value": 43}, {"measurement": "Shake/tremor: Deterioration, % of patients", "setting": "[2]", "value": "(25%)"}, {"measurement": "Shake/tremor: Deterioration, number of patients", "setting": "[2]", "value": 32}, {"measurement": "Shake/tremor: Improvement, % of patients", "setting": "[2]", "value": "(41%)"}, {"measurement": "Shake/tremor: Improvement, number of patients", "setting": "[2]", "value": 52}, {"measurement": "Shake/tremor: Same, % of patients", "setting": "[2]", "value": "(34%)"}, {"measurement": "Shake/tremor: Same, number of patients", "setting": "[2]", "value": 44}, {"measurement": "Sleep: Deterioration, % of patients", "setting": "[2]", "value": "(16%)"}, {"measurement": "Sleep: Deterioration, number of patients", "setting": "[2]", "value": 24}, {"measurement": "Sleep: Improvement, % of patients", "setting": "[2]", "value": "(47%)"}, {"measurement": "Sleep: Improvement, number of patients", "setting": "[2]", "value": 71}, {"measurement": "Sleep: Same, % of patients", "setting": "[2]", "value": "(38%)"}, {"measurement": "Sleep: Same, number of patients", "setting": "[2]", "value": 57}, {"measurement": "Spasms: Deterioration, % of patients", "setting": "[2]", "value": "(22%)"}, {"measurement": "Spasms: Deterioration, number of patients", "setting": "[2]", "value": 27}, {"measurement": "Spasms: Improvement, % of patients", "setting": "[2]", "value": "(49%)"}, {"measurement": "Spasms: Improvement, number of patients", "setting": "[2]", "value": 81}, {"measurement": "Spasms: Same, % of patients", "setting": "[2]", "value": "(29%)"}, {"measurement": "Spasms: Same, number of patients", "setting": "[2]", "value": 49}, {"measurement": "Spasticity: Deterioration, % of patients", "setting": "[2]", "value": "(27%)"}, {"measurement": "Spasticity: Deterioration, number of patients", "setting": "[2]", "value": 47}, {"measurement": "Spasticity: Improvement, % of patients", "setting": "[2]", "value": "(51%)"}, {"measurement": "Spasticity: Improvement, number of patients", "setting": "[2]", "value": 89}, {"measurement": "Spasticity: Same, % of patients", "setting": "[2]", "value": "(23%)"}, {"measurement": "Spasticity: Same, number of patients", "setting": "[2]", "value": 40}, {"measurement": "Tiredness: Deterioration, % of patients", "setting": "[2]", "value": "(48%)"}, {"measurement": "Tiredness: Deterioration, number of patients", "setting": "[2]", "value": 76}, {"measurement": "Tiredness: Improvement, % of patients", "setting": "[2]", "value": "(22%)"}, {"measurement": "Tiredness: Improvement, number of patients", "setting": "[2]", "value": 35}, {"measurement": "Tiredness: Same, % of patients", "setting": "[2]", "value": "(29%)"}, {"measurement": "Tiredness: Same, number of patients", "setting": "[2]", "value": 46}, {"measurement": "changes in Ashworth scores", "setting": "patients with MS", "value": "no significant changes"}]}]}
